Experimental data reported in article PMC4728187, “A fluorescent approach for identifying P2X1 ligands” (Neuropharmacology, 2015).
Where “and” joins values, the source holds several entries; their conditions need not be identical. Equal values may be shown once. Entries after “also recorded” stand apart in the source; their conditions may differ.

What was measured:
P2X1 receptors [1] = target: T1, P2X1 receptors (Homo sapiens, UniProt P51575); experiment: Fluorometric microplate assay with voltage-sensitive (membrane potential) dye, FlexStation III; format: cell-based; parameters: expressed in transfected cells; conditions: for Hill slope (inhibition): inhibition of 10 μM ATP responses; for Hill slope (agonist response): agonist concentration-response; for EC50 / pEC50: agonist, peak fluorescence, HEK 293T cells stably expressing P2X1
T1 sequence (P51575 1-399): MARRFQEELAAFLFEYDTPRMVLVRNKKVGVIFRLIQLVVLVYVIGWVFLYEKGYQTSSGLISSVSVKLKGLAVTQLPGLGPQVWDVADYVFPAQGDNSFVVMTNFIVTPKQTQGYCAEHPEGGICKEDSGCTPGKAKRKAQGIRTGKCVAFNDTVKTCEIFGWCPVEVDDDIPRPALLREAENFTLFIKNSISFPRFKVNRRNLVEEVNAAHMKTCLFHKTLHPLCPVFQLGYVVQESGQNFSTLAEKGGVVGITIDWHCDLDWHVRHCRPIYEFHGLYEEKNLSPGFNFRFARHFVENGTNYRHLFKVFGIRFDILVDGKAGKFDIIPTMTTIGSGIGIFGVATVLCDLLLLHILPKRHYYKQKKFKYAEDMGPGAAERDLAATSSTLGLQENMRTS
Experimental: In brief, fragments were assessed for both agonist and antagonist activities using HEK 293T cells stably expressing doxycycline-inducible P2X1 receptors incubated for 45 min with 50 μl of a fluorescent dye sensitive to membrane potential (dye FLIPR Membrane Potential Assay Kit, Molecular Devices, Wokingham, UK) that was dissolved in buffer (mM: 115 NaCl, 1 KCl, 1 MgCl2, 1 CaCl2, 10 HEPES, 10 D-Glucose, pH 7.4). Dye-loaded cells were transferred to a FlexStation III (Molecular Devices) where compound applications were made without removing the dye. At recording intervals of 1.2 s, baseline fluorescence was recorded for 20 s, followed by a further 60 s after the addition of compounds. Ultimately two applications were made to the same cells. In the first, agonist activity was assessed by adding 50 μl novel fragment (final concentration = 300 μM) to each well. Following the completion of the first application, a second 50 μl application of 30 μM ATP (final concentration = 10 μM) was then added to the same cells. A response upon the first (fragment) application and an absence of a response on the second (ATP) application indicated agonist activity followed by inhibition as a result of receptor desensitisation.
In addition to testing fragments, the reproducibility of each experiment was assessed by including an ATP concentration–response in the first column and a saline control in the last column of the first application. […] The saline control in the first application also meant that an ATP concentration–response could be performed at the end of the second application. This allowed cell viability to be assessed by comparing the ATP concentration–response at the start of the first application with the ATP concentration–response at the end of the second application. […] Measurements from these concentration-dependence experiments were fitted using Eq. (1) below.
Measurements from the FlexStation III were recorded using the integrated software SoftMax Pro v5.4.5 (Molecular Devices). Analysis of concentration-dependence was performed with GraphPad Prism v5.00 (GraphPad Software, San Diego, CA, USA). Peak fluorescence was measured at a range of ligand concentrations and normalised to the maximum peak fluorescence for the same experiment. The mean and standard error of the mean (S.E.M.) for a series of measurements was plotted against agonist or antagonist concentration and iteratively fitted to the following equation:(1) y=Imin+Fmax−Fmin/1+10^((logR50-x)^nH) where Fmin is the baseline fluorescence, Fmax is the peak fluorescence, R50 is the concentration of ligand needed to generate a half-maximal response, x is the ligand concentration and nH is the Hill slope.

P2X1 receptors [2] = target: T1, P2X1 receptors; experiment: Confocal imaging of Alexa-647-ATP cell-surface labelling and competition by pre-treatment
From the text: (§1) Live cells were routinely visualised in phosphate buffered saline (PBS (mM); 155 NaCl, 3.0 Na2HPO4, 1.0 KH2PO4, pH 7.4). Static and time-lapse images were collected using a FV300 laser-scanning confocal microscope with either an Olympus UplanFLN 40 × NA1.30 oil immersion objective and a 60 μm confocal aperture, or a PlanApo 60x NA1.42 oil immersion objective and a 60 μm confocal aperture. Images were exported to ImageJ v1.47 (National Institutes of Health, USA) and the Multi Measure plugin (Optinav Inc, WA, USA) used for analysing regions of interest.

[3] = target: P2X1 with N-terminus substituted by that of P2X2 receptor; parameters: method as in Rettinger and Schmalzing, 2004; Bhargava et al., 2013; conditions: desensitisation slowed by P2X2 N-terminus substitution; ref Rettinger and Schmalzing, 2004; Bhargava et al., 2013; cited from earlier work
[4] = test system: Untransfected HEK 293T cells; experiment: Fluorometric microplate assay with voltage-sensitive dye on untransfected cells; format: cell-based
P2X7 receptors = target: T2, P2X7 receptors (Homo sapiens, UniProt Q99572); experiment: Confocal imaging of Alexa-647-ATP labelling, P2X7-expressing cells; format: binding; conditions: HEK 293T cells expressing P2X7, data not shown
T2 construct: expressed in transfected cells; host or cells: HEK 293T
T2 sequence (Q99572 1-595): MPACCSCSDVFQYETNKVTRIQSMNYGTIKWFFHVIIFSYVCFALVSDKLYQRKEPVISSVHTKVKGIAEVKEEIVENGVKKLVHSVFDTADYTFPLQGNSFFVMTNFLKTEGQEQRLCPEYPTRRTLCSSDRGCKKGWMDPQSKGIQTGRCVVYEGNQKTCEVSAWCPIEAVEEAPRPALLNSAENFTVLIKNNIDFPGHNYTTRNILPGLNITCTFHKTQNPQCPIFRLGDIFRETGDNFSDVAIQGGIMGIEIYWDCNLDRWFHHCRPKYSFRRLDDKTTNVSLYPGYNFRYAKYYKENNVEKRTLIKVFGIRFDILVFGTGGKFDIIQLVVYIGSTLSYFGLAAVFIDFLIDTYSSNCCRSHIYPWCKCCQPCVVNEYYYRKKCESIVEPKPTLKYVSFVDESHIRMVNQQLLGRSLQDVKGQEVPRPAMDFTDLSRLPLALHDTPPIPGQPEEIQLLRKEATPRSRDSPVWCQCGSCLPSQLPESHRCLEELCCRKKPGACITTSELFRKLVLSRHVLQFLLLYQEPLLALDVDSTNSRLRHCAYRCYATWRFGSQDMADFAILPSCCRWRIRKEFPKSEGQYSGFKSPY

P2X1 receptors [5] = target: T1, P2X1 receptors; experiment: Confocal microscopy kinetic analysis of Alexa-647-ATP binding at the cell surface; parameters: expressed in transfected cells
Experimental: Kinetic parameters were determined according to the following model of a simple bimolecular binding scheme:(2) L+R⇌koffkonLR where L is the free ligand concentration, R is receptor concentration, LR is the ligand–receptor complex and kon and koff are the microscopic association and dissociation rate constants. In a simple scheme such as this, the equilibrium dissociation constant (Kd) is equal to the ratio of dissociation to association rate constants, such that:(3) Kb=k−1/k+1
According to a one site binding model of the type shown, the observed rates of association and dissociation can be used to estimate k+1 and k−1:(4) 1/τoff=k−1 and(5) 1/τon=k+1[L]+k−1 where τon refers to the rate at which fluorescence increases, τoff refers to the rate that fluorescence decreases and [L] is concentration of the ligand used.
Intracellular and background fluorescence was also routinely monitored as a control.

P2X4 receptors = target: T3, P2X4 receptors (Homo sapiens, UniProt Q99571); experiment: Confocal imaging of Alexa-647-ATP labelling, P2X4-expressing cells; format: binding; conditions: HEK 293T cells expressing P2X4, data not shown
T3 construct: expressed in transfected cells; host or cells: HEK 293T
T3 sequence (Q99571 1-388): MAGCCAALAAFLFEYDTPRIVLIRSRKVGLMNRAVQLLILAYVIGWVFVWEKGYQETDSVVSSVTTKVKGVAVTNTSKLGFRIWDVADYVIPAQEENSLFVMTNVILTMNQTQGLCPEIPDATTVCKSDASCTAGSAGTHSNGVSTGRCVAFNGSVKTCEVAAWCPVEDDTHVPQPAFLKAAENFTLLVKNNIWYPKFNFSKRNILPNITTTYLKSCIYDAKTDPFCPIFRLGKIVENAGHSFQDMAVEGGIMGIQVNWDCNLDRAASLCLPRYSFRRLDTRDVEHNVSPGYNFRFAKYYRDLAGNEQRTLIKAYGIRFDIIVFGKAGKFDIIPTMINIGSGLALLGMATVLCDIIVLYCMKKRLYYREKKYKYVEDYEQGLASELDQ

[6] = test system: non-induced HEK 293T cells; experiment: Confocal imaging of Alexa-647-ATP labelling on non-induced cells; format: binding; conditions: 150 nM Alexa-647-ATP
From the text: as §1

[7] = pre-treated with 5 mM, 150 nM Alexa-647-ATP

## O=C(Nc1cc(C(=O)Nc2ccc(S(=O)(=O)O)cc2S(=O)(=O)O)cc(C(=O)Nc2ccc(S(=O)(=O)O)cc2S(=O)(=O)O)c1)Nc1cc(C(=O)Nc2ccc(S(=O)(=O)O)cc2S(=O)(=O)O)cc(C(=O)Nc2ccc(S(=O)(=O)O)cc2S(=O)(=O)O)c1 [NF449]
P2X1 receptors [1]
  Hill slope (inhibition): 1.1 ± 0.2
P2X1 receptors [2]; pre-treated with 250 μM, 150 nM Alexa-647-ATP
  Alexa-647-ATP cell-surface fluorescence after pre-treatment: not present; also recorded: not seen

## Cc1ccc(C(=O)Nc2ccc(S(=O)(=O)O)c3cc(S(=O)(=O)O)cc(S(=O)(=O)O)c23)cc1NC(=O)c1cccc(NC(=O)Nc2cccc(C(=O)Nc3cc(C(=O)Nc4ccc(S(=O)(=O)O)c5cc(S(=O)(=O)O)cc(S(=O)(=O)O)c45)ccc3C)c2)c1 [suramin]
P2X1 receptors [1]
  Hill slope (inhibition): 1.5 ± 0.7
P2X1 receptors [2]; pre-treatment, concentration not printed, 150 nM Alexa-647-ATP
  Alexa-647-ATP cell-surface fluorescence after pre-treatment: still seen; also recorded: no competition was seen
P2X1 receptors [2]; pre-treatment, concentration not printed, 150 nM Alexa-647-ATP, listed as Suramin
  Alexa-647-ATP cell-surface fluorescence after pre-treatment: did not alter cell-surface fluorescence

## Nc1ncnc2c1ncn2[C@@H]1O[C@H](COP(=O)(O)OP(=O)(O)OP(=O)(O)O)[C@@H](O)[C@H]1O [ATP]
[3]
  EC50: low nanomolar
P2X1 receptors [2]; [7]
  Alexa-647-ATP cell-surface fluorescence after pre-treatment: not seen

## Nc1ncnc2c1ncn2[C@@H]1O[C@H](COP(=O)(O)OP(=O)([O-])OP(=O)([O-])O)[C@@H](O)[C@H]1O.[Mg+2] [MgATP]
P2X1 receptors [1]
  Hill slope (agonist response): 1.0 ± 0.1
  EC50: 14.1 µM
  pEC50: 4.85 ± 0.07
[4]
  fluorescent response to agonist: did not respond

## Alexa-647-ATP
P2X1 receptors [1]
  Hill slope (agonist response): 1.1 ± 0.1
  EC50: 5.75 µM
  pEC50: 5.24 ± 0.04
[3]
  EC50: low nanomolar
P2X7 receptors
  cell-surface fluorescence: could not detect any measureable fluorescence
P2X1 receptors [2]; 150 nM Alexa-647-ATP, P2X1-expressing HEK 293T cells
  cell-surface fluorescence after addition of ligand: rapid increase in cell-surface fluorescence
P2X1 receptors [2]; live HEK 293T cells, confocal
  cell permeability (fluorescence inside labelled cells): not cell-permeable
P2X1 receptors [5]; 0.5 μM Alexa-647-ATP
  kobs: 0.79 ± 0.08 min⁻¹
P2X1 receptors [5]; 5 μM Alexa-647-ATP
  kobs: 5.86 ± 0.58 min⁻¹
P2X1 receptors [5]; after rapid washing with PBS, mono-exponential fits
  koff, direct measurement of dissociation: 0.00667 s⁻¹ and 0.00678 s⁻¹
P2X1 receptors [5]; slope of 1/τon (kobs) vs concentration
  association rate (kon): 1.142e+06 M⁻¹ s⁻¹
P2X1 receptors [5]; y-axis intercept of 1/τon (kobs) vs concentration
  dissociation rate (koff): 0.136 s⁻¹
P2X4 receptors
  cell-surface fluorescence: could not detect any measureable fluorescence
[6]
  cell-surface fluorescence: not present

## Nc1ncnc2c1ncn2[C@@H]1O[C@H](COP(=O)(O)OP(=O)([O-])OP(=O)([O-])O)[C@@H](O)[C@H]1O.[Na+].[Na+] [NaATP]
P2X1 receptors [1]
  Hill slope (agonist response): 0.9 ± 0.2
  EC50: 5.49 µM
  pEC50: 5.26 ± 0.09
P2X1 receptors [2]; [7]
  Alexa-647-ATP cell-surface fluorescence after pre-treatment: not present
[4]
  fluorescent response to agonist: did not respond
